What was measured:
HEp2 cells = experiment: Cytotoxicity, HEp2 cell proliferation (microscopy, MTT test); assay type: cell-based; conditions: 48-72 h incubation at 37° C.
Procedure: (§1) The cytotoxicity of each substance was determined by direct observation under microscope, and mitochondrial dehydrogenases activities were assayed according to the MTT test (F. Denizot et al., Immunol. Methods, 1986, 89, 271).
(§2) The concentration of compound which, after 48-72 h of incubation at 37° C., inhibited by 50% the cell proliferation was defined as cytotoxic dose 50% (CD50).

HeLa cells = experiment: Cytotoxicity, HeLa cell proliferation (microscopy, MTT test); assay type: cell-based; conditions: 48-72 h incubation at 37° C.
Procedure: as §1, §2

[1] = tested on: Polio 1 (Brunhilde strain); assay type: cell-based; conditions: Polio 1, plaque reduction
ECHO 9 (ATCC: VR-133) = experiment: Antiviral activity, direct inhibition of plaque number; assay type: cell-based; conditions: ECHO 9, plaque reduction; read-out: Concentration inhibiting by 100% viral replication
[2] = tested on: Measles (Edmonston strain); experiment: as above; assay type: cell-based; conditions: Measles morbillivirus, read-out: Concentration inhibiting by 100% viral replication
[3] = tested on: Coxsackie B1 (ATCC: VR-28); experiment: as above; assay type: cell-based; conditions: Coxsackie B1, plaque reduction; read-out: Concentration inhibiting by 100% viral replication
HRV-2 = experiment: Rhinovirus cytopathic effect reduction in HeLa-Ohio cells (MTT test); assay type: cell-based; conditions: HRV-2, HeLa-Ohio cells
HRV-9 = experiment: as above; assay type: cell-based; conditions: HRV-9, HeLa-Ohio cells
HRV-15 = experiment: as above; assay type: cell-based; conditions: HRV-15, HeLa-Ohio cells
HRV-29 = experiment: as above; assay type: cell-based; conditions: HRV-29, HeLa-Ohio cells
HRV-70 = experiment: as above; assay type: cell-based; conditions: Enterovirus, HRV70; HRV-70, HeLa-Ohio cells; read-out: Concentration inhibiting by 100% viral replication
HRV-86 = experiment: as above; assay type: cell-based; conditions: Enterovirus, HRV86; HRV-86, HeLa-Ohio cells; read-out: Concentration inhibiting by 100% viral replication
HRV-89 = experiment: as above; assay type: cell-based; conditions: HRV-89, HeLa-Ohio cells
HRV-1B = experiment: as above; assay type: cell-based
HRV-14 = experiment: Rhinovirus cytopathic effect reduction in HeLa-Ohio cells (MTT test); assay type: cell-based; conditions: HRV-14, HeLa-Ohio cells

With `CSc1noc(-c2ccc(OCCc3ccccc3)cc2)c1C#N` [ON-6, 3-Methylthio-5-[4-(2-phenyl-1-ethoxy)-phenyl]-4-isoxazolecarbonitrile] the “Concentration inhibiting by 50% HEp2 cell proliferation: CD50” value (HEp2 cells) was > 20 µM, the “Concentration inhibiting by 50% HeLa cell proliferation: CD50” value (HeLa cells) was > 20 µM and the “Concentration inhibiting by 100% viral replication” value [1] was 0.2 µM. It also gave an IC100 (ECHO 9 (ATCC: VR-133)) of 0.2 µM, an IC100 [2] of 1 µM and an IC100 [3] of 10 µM. The “Concentration inhibiting by 100% viral replication” value (HRV-2) was 4 µM, the “Concentration inhibiting by 100% viral replication” value (HRV-9) was 8 µM and the “Concentration inhibiting by 100% viral replication” value (HRV-15) was 6 µM. The “Concentration inhibiting by 100% viral replication” value (HRV-29) was 2 µM, the IC100 (HRV-70) was 10 µM and the IC100 (HRV-86) was 6 µM. For the same compound, the “Concentration inhibiting by 100% viral replication” value (HRV-89) was 2 µM and the “Concentration inhibiting by 100% viral replication” value (HRV-1B) was 5 µM.
For `CSc1noc(-c2ccc(OCCCc3ccccc3)cc2)c1C#N` [ON-7, 3-Methylthio-5-[4-(3-phenyl-1-propoxy)-phenyl]-4-isoxazolecarbonitrile], the “Concentration inhibiting by 50% HEp2 cell proliferation: CD50” value (HEp2 cells) was > 25 µM, the “Concentration inhibiting by 50% HeLa cell proliferation: CD50” value (HeLa cells) was > 25 µM and the “Concentration inhibiting by 100% viral replication” value [1] was 0.4 µM. It also gave an IC100 (ECHO 9 (ATCC: VR-133)) of 0.2 µM, an IC100 [2] of 10 µM and an IC100 [3] of 0.6 µM. For the same compound, the “Concentration inhibiting by 100% viral replication” value (HRV-29) was 5 µM, the IC100 (HRV-70) was 5 µM and the IC100 (HRV-86) was 5 µM. For the same compound, the “Concentration inhibiting by 100% viral replication” value (HRV-89) was 5 µM, the “Concentration inhibiting by 100% viral replication” value (HRV-1B) was 5 µM and the melting point was 99 to 100 °C.
For `CSc1noc(-c2ccc(OCCOc3ccccc3)cc2)c1C#N` [ON-8, 3-Methylthio-5-[4-(2-phenoxy-1-ethoxy)-phenyl]-4-isoxazolecarbonitrile], the “Concentration inhibiting by 50% HEp2 cell proliferation: CD50” value (HEp2 cells) was > 25 µM, the “Concentration inhibiting by 50% HeLa cell proliferation: CD50” value (HeLa cells) was > 25 µM and the “Concentration inhibiting by 100% viral replication” value [1] was 10 µM. For the same compound, the IC100 (ECHO 9 (ATCC: VR-133)) was 0.2 µM, the IC100 [3] was 10 µM and the IC100 (HRV-70) was 5 µM. For the same compound, the IC100 (HRV-86) was 5 µM, the “Concentration inhibiting by 100% viral replication” value (HRV-89) was 5 µM and the “Concentration inhibiting by 100% viral replication” value (HRV-1B) was 5 µM. For the same compound, the melting point was 128 to 131 °C.
For `CSc1noc(-c2ccc(OCCCOc3ccccc3)cc2)c1C#N` [ON-9, 3-Methylthio-5-[4-(3-phenoxy-1-propoxy)-phenyl]-4-isoxazolecarbonitrile], the “Concentration inhibiting by 50% HEp2 cell proliferation: CD50” value (HEp2 cells) was 20 µM, the “Concentration inhibiting by 50% HeLa cell proliferation: CD50” value (HeLa cells) was 20 µM and the IC100 (ECHO 9 (ATCC: VR-133)) was 0.1 µM. It also gave an IC100 [2] of 10 µM, an IC100 [3] of 1 µM and an IC100 (HRV-70) of 5 µM. The IC100 (HRV-86) was 5 µM, the “Concentration inhibiting by 100% viral replication” value (HRV-89) was 5 µM and the “Concentration inhibiting by 100% viral replication” value (HRV-1B) was 10 µM. For the same compound, the melting point was 121 to 123 °C.
In the case of `CSc1noc(-c2ccc(OCCCCOc3ccccc3)cc2)c1C#N` [ON-10, 3-Methylthio-5-[4-(4-phenoxy-1-butoxy)-phenyl]-4-isoxazolecarbonitrile], the “Concentration inhibiting by 50% HEp2 cell proliferation: CD50” value (HEp2 cells) is reported as 10 µM, the “Concentration inhibiting by 50% HeLa cell proliferation: CD50” value (HeLa cells) is reported as 10 µM and the IC100 (ECHO 9 (ATCC: VR-133)) is reported as 1 µM. The IC100 [2] was 0.02 µM, the IC100 [3] was 0.02 µM and the “Concentration inhibiting by 100% viral replication” value (HRV-14) was 1 µM. The “Concentration inhibiting by 100% viral replication” value (HRV-29) was 1 µM, the IC100 (HRV-70) was 1 µM and the IC100 (HRV-86) was 1 µM. The “Concentration inhibiting by 100% viral replication” value (HRV-89) was 1 µM, the “Concentration inhibiting by 100% viral replication” value (HRV-1B) was 2 µM and the melting point was 113 to 114 °C.
For `CSc1noc(-c2ccc(OCCOc3ccc([N+](=O)[O-])cc3)cc2)c1C#N` [ON-11, 3-Methylthio-5-[4-[2-(4-nitrophenoxy)ethoxy]phenyl]-4-isoxazolecarbonitrile], the “Concentration inhibiting by 50% HEp2 cell proliferation: CD50” value (HEp2 cells) was 25 µM, the “Concentration inhibiting by 50% HeLa cell proliferation: CD50” value (HeLa cells) was 10 µM and the IC100 (ECHO 9 (ATCC: VR-133)) was 4 µM. The IC100 [2] was 10 µM, the IC100 [3] was 10 µM and the IC100 (HRV-70) was 8 µM. For the same compound, the IC100 (HRV-86) was 2 µM and the melting point was 170 to 171 °C.
In the case of `CSc1noc(-c2ccc(OCCOc3ccc(C)cc3)cc2)c1C#N` [ON-12, 3-Methylthio-5-[4-[2-(4-methylphenoxy)ethoxy]phenyl]-4-isoxazolecarbonitrile], the “Concentration inhibiting by 50% HEp2 cell proliferation: CD50” value (HEp2 cells) is reported as > 25 µM, the “Concentration inhibiting by 50% HeLa cell proliferation: CD50” value (HeLa cells) is reported as > 25 µM and the “Concentration inhibiting by 100% viral replication” value [1] is reported as 1 µM. For the same compound, the IC100 (ECHO 9 (ATCC: VR-133)) was 0.06 µM, the IC100 [2] was 10 µM and the IC100 [3] was 10 µM. For the same compound, the IC100 (HRV-70) was 5 µM, the IC100 (HRV-86) was 5 µM and the “Concentration inhibiting by 100% viral replication” value (HRV-89) was 5 µM. For the same compound, the melting point was 139 to 140 °C.
With `CCOC(=O)c1ccc(OCCOc2ccc(-c3onc(SC)c3C#N)cc2)cc1` [ON-13, Ethyl-4-[[2-[4-(3-methylthio-4-cyano-5-isoxazolyl)-phenoxy]-ethyl]-oxy]benzoate] the “Concentration inhibiting by 50% HEp2 cell proliferation: CD50” value (HEp2 cells) was 25 µM, the “Concentration inhibiting by 50% HeLa cell proliferation: CD50” value (HeLa cells) was 10 µM and the “Concentration inhibiting by 100% viral replication” value [1] was 10 µM. The IC100 [2] was 0.2 µM, the IC100 [3] was 0.1 µM and the “Concentration inhibiting by 100% viral replication” value (HRV-14) was 2 µM. The IC100 (HRV-70) was 1 µM, the IC100 (HRV-86) was 1 µM and the melting point was 162 to 164 °C.
For `CSc1noc(-c2ccc(OCCOc3ccc(Br)cc3)cc2)c1C#N` [ON-14, 3-Methylthio-5-[4-[2-(4-bromophenoxy)ethoxy]phenyl]-4-isoxazolecarbonitrile], the “Concentration inhibiting by 50% HEp2 cell proliferation: CD50” value (HEp2 cells) was > 25 µM, the “Concentration inhibiting by 50% HeLa cell proliferation: CD50” value (HeLa cells) was 10 µM and the “Concentration inhibiting by 100% viral replication” value [1] was 1 µM. The IC100 (ECHO 9 (ATCC: VR-133)) was 0.06 µM, the IC100 [2] was 0.2 µM and the IC100 [3] was 0.06 µM. For the same compound, the “Concentration inhibiting by 100% viral replication” value (HRV-14) was 2 µM, the IC100 (HRV-70) was 2 µM and the IC100 (HRV-86) was 2 µM. The “Concentration inhibiting by 100% viral replication” value (HRV-89) was 2 µM and the melting point was 156 to 157 °C.

Reference: patent publication US6414004B1 (priority 1998, dated 2002)
